Assay results reported in a compilation of properties of binary mixtures (doi:10.1016/j.molliq.2019.03.144).

Assay: xn = mol fraction of the nth substance listed
Conditions: 96.7 kPa

CC(=O)[O-].CC[n+]1ccn(C)c1 + c1ccncc1
viscosity [mPa·s]
Conditions | x1 = 0.166 | x1 = 0.318 | x1 = 0.411 | x1 = 0.52 | x1 = 0.649 | x1 = 0.806 | x1 = 0.898 | x1 = 1
303.15 K | 2.54 | 5.96 | – | 15.7 | 27.5 | 51 | 72.6 | 103.2
308.15 K | – | 5.29 | 8.29 | – | 22.7 | – | – | 76.1
313.15 K | 2.12 | 4.72 | 7.27 | 11.55 | 19 | 33.1 | 44.7 | 59.6
318.15 K | 1.95 | 4.22 | 6.42 | 9.99 | 16.09 | 27 | 36 | 47.4
323.15 K | 1.797 | 3.82 | 5.71 | – | 13.77 | 22.7 | – | 38.4
328.15 K | 1.671 | – | 5.11 | 7.68 | 11.88 | – | 24.5 | 31.5
333.15 K | 1.552 | – | 4.6 | 6.82 | – | 16.33 | 20.6 | –
338.15 K | 1.453 | – | 4.16 | 6.09 | 9.11 | 14.04 | 17.63 | 22
343.15 K | – | 2.65 | – | 5.47 | – | 12.35 | 15.11 | –
348.15 K | 1.278 | 2.45 | 3.46 | 4.96 | 7.18 | 10.77 | 13.26 | 16.25
353.15 K | 1.203 | – | 3.18 | 4.48 | 6.45 | 9.52 | 11.59 | 14.03

c1ccncc1 + CC(=O)[O-].CC[n+]1ccn(C)c1
x2 = 0
Conditions | viscosity [mPa·s]
303.15 K | 0.843
313.15 K | 0.741
323.15 K | 0.658
333.15 K | 0.59
343.15 K | 0.533
353.15 K | 0.485
